Experimental data published in patent US11154515B2, “Pharmaceutical compositions comprising cannabidiol and beta-caryophyllene and methods for their use” (priority 2017, dated 2021).
Where “and” joins values, the source holds several entries; their conditions need not be identical. Equal entries are not always repeated.

Assays:
[1] = tested on: IL-1α gene expression; experiment: IL-1α gene expression (RT-qPCR) in LPS-stimulated RAW 264.7 macrophages; format: cell-based, murine; details: for reduction of LPS-induced expression of IL-1α vs untreated, LPS-stimulated controls (FIG. 3A): CBD 0.1 μM, BCP 0.013 μM (p<0.001), combination 0.1 μM + 0.013 μM (7.7:1, p<0.001); for % decrease in IL1α expression: Table 3A experiment; for % Inhibition Alone, IL-1α gene expression: Table 3B/6 experiment
Procedure: (§1) RAW 264.7 cells were cultured in Dulbecco's Modified Eagle's Medium (high glucose DMEM, Sigma-Aldrich) supplemented with 10% fetal bovine serum (FBS), 1% L-glutamine, 1% Sodium-pyruvate, 1% Penicillin-Streptomycin (culture medium). The cells were maintained in T75 flasks at 37° C. in humidified air containing 5% CO2 in an incubator and passaged every second-third day.
(§2) For drug treatment and LPS stimulation, 200,000 cells/well were seeded in 1.5 mL culture medium in a 6-well plate and incubated to allow attachment to the cell culture plate. After attachment, cells were incubated with various concentrations of CBD (0.1 μM, 0.3 μM, 1 μM, 3 μM, 5 μM, 10 μM, and 30 μM) or BCP (0.001 μM, 0.01 μM, 0.013 μM, 0.1 μM, 0.3 μM, 1 μM, 3 μM, 5 μM, 10 μM, and 100 μM), or vehicle (control) for 2 hrs. After the 2 h incubation, 0.1 μg/mL LPS was added to each well to induce inflammation and cells were incubated with LPS for 24 hrs.
(§3) After the 24 h incubation with LPS, the cells were harvested and gene expression of the pro-inflammatory cytokines interleukin (IL)-1α, IL-1β were measured by quantitative real-time polymerase chain reaction (RT-qPCR) on a Roche Light Cycler 480 QPCR System (Roche Applied Sciences) using the 5′ nuclease assay. Total RNA was isolated using TRIzol (LifeTechnologies), DNase treatment was performed according to the manufacturer's protocol, and then 1 μg of total RNA was reverse-transcribed into cDNA using High Capacity cDNA Kit from Life Technologies Corporation. PCR amplification was performed using the TaqMan primers and probes (assay IDs: Mm00439620_m1 for murine Il1a; Mm00434228_m1 for murine Il1b, Mm00446190_m1 for murine 116, Mm00441263_m1 for murine Cxcl15/Il8). Expression of the housekeeping gene, Gapdh, was used (assay ID: […]) as an internal control. The amount of the transcripts was normalized to those of the housekeeping gene using the ΔCT method. Results are expressed as % decrease in the expression levels of IL1α and IL1β in drug-treated, LPS-stimulated groups compared to the expression of each cytokine gene in the vehicle-treated, LPS-stimulated group (regarded as 100%). All experiments were repeated 2-3 times.
(§4) For statistical analysis, data were analyzed and graphs were plotted using Origin Pro Plus 6.0 software (Microcal, Northampton, Mass., USA) and Student's two-tailed two samples t-test. p<0.05 values were regarded as significant differences.

[2] = tested on: IL-1β gene expression; experiment: IL-1β gene expression (RT-qPCR) in LPS-stimulated RAW 264.7 macrophages; format: cell-based, murine; details: for reduction of LPS-induced expression of IL-1β vs untreated, LPS-stimulated controls (FIG. 3B): CBD 0.1 μM, BCP 0.013 μM (p<0.01), combination 0.1 μM + 0.013 μM (7.7:1, p<0.001)
Procedure: as §1, §2, §3, §4

[3] = tested on: male NMRI mice, mechanonociceptive threshold of the hind paws; experiment: Carrageenan-induced mechanical hyperalgesia, mechanonociceptive threshold by dynamic plantar aesthesiometry; format: in vivo, mouse; details: for effect on mechanonociceptive threshold when applied alone: CBD 1 mg/kg, BCP 10 mg/kg; for suppression of the mechanonociceptive threshold by carrageenan: most CBD and BCP single pre-treatments, three hours after carrageenan; for basal mechanonociceptive threshold vs vehicle-treated mice: single doses i.p. (CBD 0.5, 1, 10, 30 mg/kg; BCP 1, 5, 10, 30 mg/kg), 30 min after administration; for carrageenan-induced drop of the mechanonociceptive threshold: 3 hours after carrageenan
Procedure: (§5) CBD and BCP solutions (≥80%, FCC, FG) were dissolved in a solution containing 10% Tween 80 and 90% saline (vehicle) and were freshly prepared immediately before use. Mice were treated with drug solutions or vehicle control by intraperitoneal (i.p.) injection at a volume of 0.1 mL/10 g body weight. Acute paw injury was induced by intraplantar injection of 20 μL 3% carrageenan (dissolved in 0.9% NaCl, Sigma Aldrich, St. Louis, Mo., USA) into the right hind paw.
(§6) Experiments were performed on 7-16-week-old male NMRI mice (30-50 g) provided with standard chow and water ad libitum. Mice were divided into groups and treated with a single dose of vehicle control (VEH), CBD, BCP, or CBD+BCP delivered i.p. 30 minutes after drug administration, measurements were taken to determine baseline values for mechanonociceptive thresholds and paw volumes. 35 minutes after drug administration, 20 μL of 3% carrageenan was injected intraplantarly (i.pl.) in the right hind paws. 3 hours after carrageenan administration, additional measurements were taken to determine the mechanonociceptive thresholds and paw volumes of the ipsilateral and contralateral paws.
The mechanonociceptive threshold of the hind paws were measured by dynamic plantar aesthesiometry (DPA, Ugo Basile 37400, Comerio, Italy). Mice were placed into plexiglass boxes with a wire grid floor. After acclimation, the plantar surface was touched with a straight metal filament, lifting with increasing upward force (until the animal withdrew his paw or until the maximum force of 10 g was reached (maximum force of 10 g reached within 4 s). Mechanonociceptive thresholds are expressed in gram (g), while mechanical hyperalgesia is represented as a percentage decrease from the initial withdrawal thresholds (i.e., before drug and carrageenan administration) (Bolcskei K. et al., Pain. 2005; 117:368-76).

[4] = tested on: male NMRI mice, carrageenan-induced paw edema; experiment: Carrageenan-induced paw edema, plethysmometry; format: in vivo, mouse; details: for basal paw volume vs vehicle-treated mice: single doses i.p. (CBD 0.5, 1, 10, 30 mg/kg; BCP 1, 5, 10, 30 mg/kg), 30 min after administration
Procedure: as §5, §6
Baseline and post-carrageenan injection paw volume was determined by plethysmometry (Ugo Basile Plethysmometer 7140, Comerio, Italy) and expressed in cubic centimeter (cm^3). Paw edema was presented as percentage increase of baseline values obtained prior to carrageenan administration (Bolcskei K. et al., Pain. 2005; 117:368-76).

[5] = Table 4 Exp. 1: CBD 0.1 μM, BCP 0.013 μM, CBD + BCP 0.1 μM + 0.013 μM
[6] = Table 4 Exp. 2: CBD 1 μM, BCP 0.13 μM, CBD + BCP 1 μM + 0.13 μM
[7] = Table 3A experiment, single agent 0.1 μM
[8] = Table 3A experiment, single agent 1 μM
[9] = Table 3A experiment, single agent 5 μM
[10] = Table 3A experiment, single agent 10 μM
[11] = Table 3B experiment, single agent 0.1 μM
[12] = Table 3B experiment, single agent 0.3 μM
[13] = Table 3B experiment, single agent 1.0 μM
[14] = Table 3B experiment, single agent 3.0 μM
[15] = Table 3B experiment, single agent 10 μM
[16] = most CBD and BCP single dose pre-treatments, three hours after i.pl. carrageenan

SMILES: C=C1CC/C=C(\C)CC[C@H]2[C@H]1CC2(C)C [BCP, (E)-beta-caryophyllene]
- reduction of LPS-induced expression of IL-1α vs untreated, LPS-stimulated controls (FIG. 3A) [1]: did significantly reduce
- anti-inflammatory actions when applied alone ([1]; IL-1α and IL-1β gene expression): only minor (if any) anti-inflammatory actions
- % decrease in IL1α expression ([1]; single agent 0.1 μM): 2%
- % decrease in IL1α expression ([1]; single agent 1 μM): 18%
- % decrease in IL1α expression ([1]; single agent 5 μM): 26%
- % decrease in IL1α expression ([1]; single agent 10 μM): 0%
- % Inhibition Alone, IL-1α gene expression ([1]; single agent 0.001 μM): 0%
- % Inhibition Alone, IL-1α gene expression ([1]; single agent 0.01 μM): 0%
- % Inhibition Alone, IL-1α gene expression ([1]; single agent 0.1 μM): 1.8 ± 0.2%
- % Inhibition Alone, IL-1α gene expression ([1]; single agent 0.3 μM): 5.8 ± 1.2%
- % Inhibition Alone, IL-1α gene expression ([1]; single agent 1 μM): 0%
- % Inhibition Alone, IL-1α gene expression ([1]; single agent 3 μM): 0%
- % Inhibition Alone, IL-1α gene expression ([1]; single agent 10 μM): 8.2 ± 4.1%
- % decrease in IL-1α gene expression [1, 5]: 32%
- % decrease in IL-1α gene expression [1, 6]: 0%
- % Inhibition BCP Alone (IL-1β gene expression) ([2]; 0.001 μM BCP alone): 0%
- % Inhibition BCP Alone (IL-1β gene expression) ([2]; 0.01 μM BCP alone): 0%
- % Inhibition BCP Alone (IL-1β gene expression) ([2]; 0.1 μM BCP alone): 1.8 ± 0.2%
- % Inhibition BCP Alone (IL-1β gene expression) ([2]; 0.3 μM BCP alone): 5.8 ± 1.2%
- % Inhibition BCP Alone (IL-1β gene expression) ([2]; 1 μM BCP alone): 0%
- % Inhibition BCP Alone (IL-1β gene expression) ([2]; 3 μM BCP alone): 0%
- % Inhibition BCP Alone (IL-1β gene expression) ([2]; 10 μM BCP alone): 8.2 ± 4.1%
- % Inhibition BCP Alone (IL-1β gene expression) ([2]; 100 μM BCP alone, * indicates possibly cytotoxicity): *94.2 ± 11.3%
- reduction of LPS-induced expression of IL-1β vs untreated, LPS-stimulated controls (FIG. 3B) [2]: did significantly reduce
- % decrease in IL1β expression [2, 7]: 11%
- % decrease in IL1β expression [2, 8]: 19%
- % decrease in IL1β expression [2, 9]: 62%
- % decrease in IL1β expression [2, 10]: 7%
- % decrease in IL1β expression ([2]; Table 3B experiment, single agent 0.001 μM): 0%
- % decrease in IL1β expression ([2]; Table 3B experiment, single agent 0.01 μM): 0%
- % decrease in IL1β expression [2, 11]: 1.8 ± 0.2%
- % decrease in IL1β expression [2, 12]: 5.8 ± 1.2%
- % decrease in IL1β expression [2, 13]: 0%
- % decrease in IL1β expression [2, 14]: 0%
- % decrease in IL1β expression [2, 15]: 8.2 ± 4.1%
- % decrease in IL1β expression ([2]; Table 3B experiment, single agent 100 μM): 94.2 ± 11.3%
- % decrease in IL-1β gene expression [2, 5]: 34%
- % decrease in IL-1β gene expression [2, 6]: 0%
- carrageenan-induced mechanical hyperalgesia ([3]; 30 mg/kg i.p., vs vehicle, p<0.001): significantly reduced
- effect on mechanonociceptive threshold when applied alone [3]: negligible effects
- suppression of the mechanonociceptive threshold by carrageenan [3]: only mildly influenced
- basal mechanonociceptive threshold vs vehicle-treated mice [3]: none of the investigated single doses of CBD and BCP influenced the basal mechanonociceptive threshold
- carrageenan-induced paw edema ([4]; 30 mg/kg i.p., three hours after carrageenan, vehicle 60%, p<0.0001): 20%
- carrageenan-induced increase of the paw volume [4, 16]: only mildly influenced
- basal paw volume vs vehicle-treated mice [4]: none of the investigated single doses of CBD or BCP influenced the basal paw volume

SMILES: C=C(C)[C@@H]1CCC(C)=C[C@H]1c1c(O)cc(CCCCC)cc1O [CBD, cannabidiol]
- reduction of LPS-induced expression of IL-1α vs untreated, LPS-stimulated controls (FIG. 3A) [1]: did not significantly reduce
- % decrease in IL1α expression ([1]; single agent 0.1 μM): 13%
- % decrease in IL1α expression ([1]; single agent 1 μM): 4%
- % decrease in IL1α expression ([1]; single agent 5 μM): 10%
- % decrease in IL1α expression ([1]; single agent 10 μM): 21%
- % Inhibition Alone, IL-1α gene expression ([1]; single agent 0.1 μM): 0%
- % Inhibition Alone, IL-1α gene expression ([1]; single agent 0.3 μM): 3.2 ± 0.2%
- % Inhibition Alone, IL-1α gene expression ([1]; single agent 1 μM): 34.5 ± 6.2%
- % Inhibition Alone, IL-1α gene expression ([1]; single agent 3 μM): 55.5 ± 4.7% and 55.5 ± 47%
- % decrease in IL-1α gene expression [1, 5]: 0%
- % decrease in IL-1α gene expression [1, 6]: 42%
- concentrations with marked anti-inflammatory effects ([1]; applied alone, IL-1α and IL-1β gene expression): ≥ 1 µM
- % Inhibition CBD Alone (IL-1β gene expression) ([2]; 0.1 μM CBD alone): 5.8 ± 1.4%
- % Inhibition CBD Alone (IL-1β gene expression) ([2]; 0.3 μM CBD alone): 9 ± 3.6%
- % Inhibition CBD Alone (IL-1β gene expression) ([2]; 1 μM CBD alone): 39.2 ± 10.1%
- % Inhibition CBD Alone (IL-1β gene expression) ([2]; 3 μM CBD alone): 85.6 ± 10%
- % Inhibition CBD Alone (IL-1β gene expression) ([2]; 10 μM CBD alone): 92.2 ± 8.4%
- reduction of LPS-induced expression of IL-1β vs untreated, LPS-stimulated controls (FIG. 3B) [2]: did not significantly reduce
- % decrease in IL1β expression [2, 7]: 19%
- % decrease in IL1β expression [2, 8]: 11%
- % decrease in IL1β expression [2, 9]: 31%
- % decrease in IL1β expression [2, 10]: 33%
- % decrease in IL1β expression [2, 11]: 5.8 ± 1.4%
- % decrease in IL1β expression [2, 12]: 9 ± 3.6%
- % decrease in IL1β expression [2, 13]: 39.2 ± 10.1%
- % decrease in IL1β expression [2, 14]: 85.6 ± 10%
- % decrease in IL1β expression [2, 15]: 92.2 ± 8.4%
- % decrease in IL-1β gene expression [2, 5]: 13%
- % decrease in IL-1β gene expression [2, 6]: 55%
- carrageenan-induced drop of the mechanonociceptive threshold ([3]; 0.5 mg/kg CBD alone): not influenced
- carrageenan-induced drop of the mechanonociceptive threshold ([3]; 1 mg/kg CBD alone): not influenced
- effect on mechanonociceptive threshold when applied alone [3]: negligible effects
- suppression of the mechanonociceptive threshold by carrageenan [3]: only mildly influenced
- basal mechanonociceptive threshold vs vehicle-treated mice [3]: none of the investigated single doses of CBD and BCP influenced the basal mechanonociceptive threshold
- carrageenan-induced increase of the paw volume ([4]; 0.5 mg/kg CBD alone, 3 hours after carrageenan): not influenced
- carrageenan-induced increase of the paw volume ([4]; 1 mg/kg CBD alone, 3 hours after carrageenan): not influenced
- carrageenan-induced increase of the paw volume [4, 16]: only mildly influenced
- basal paw volume vs vehicle-treated mice [4]: none of the investigated single doses of CBD or BCP influenced the basal paw volume
